Assay results as given in publication PMC7686313, “Phase 1 study of mTORC1/2 inhibitor sapanisertib (TAK-228) in advanced solid tumours, with an expansion phase in renal, endometrial or bladder cancer” (British Journal of Cancer, 2020).

Assay: Safety (adverse events, NCI CTCAE v4.0), expansion phase
Conditions: expansion QD 5 mg

CC(C)n1nc(-c2ccc3oc(N)nc3c2)c2c(N)ncnc21 [Sapanisertib]
Abdominal pain, all-grade AE of any cause: 7 (18) n (%)
Abdominal pain, grade ≥3 AE of any cause: 3 (8) n (%)
Acute kidney injury, grade ≥3 AE of any cause: 2 (5) n (%)
Acute kidney injury, treatment-related AE: 2 (5) n (%)
Anaemia, all-grade AE of any cause: 6 (15) n (%)
Anaemia, grade ≥3 AE of any cause: 1 (3) n (%)
Anaemia, treatment-related AE: 2 (5) n (%)
Any AE: 39 (100) n (%)
Any AE resulting in dose modification/interruption: 27 (69) n (%)
Any AE resulting in treatment discontinuation: 7 (18) n (%)
Any SAE: 19 (49) n (%)
Any grade ≥3 AE: 30 (77) n (%)
Any treatment-related AE: 39 (100) n (%)
Any treatment-related SAE: 5 (13) n (%)
Any treatment-related grade ≥3 AE: 18 (46) n (%)
Arthralgia, all-grade AE of any cause: 2 (5) n (%)
Asthenia, grade ≥3 AE of any cause: 1 (3) n (%)
Asthenia, treatment-related AE: 7 (18) n (%)
Asthenia, treatment-related grade ≥3 AE: 1 (3) n (%)
Blood creatinine increased, all-grade AE of any cause: 5 (13) n (%)
Blood creatinine increased, treatment-related AE: 3 (8) n (%)
Constipation, all-grade AE of any cause: 10 (26) n (%)
Constipation, grade ≥3 AE of any cause: 0 (0) n (%)
Cough, all-grade AE of any cause: 9 (23) n (%)
Decreased appetite, all-grade AE of any cause: 20 (51) n (%)
Decreased appetite, treatment-related AE: 17 (44) n (%)
Dehydration, all-grade AE of any cause: 6 (15) n (%)
Dehydration, grade ≥3 AE of any cause: 0 (0) n (%)
Dehydration, treatment-related AE: 2 (5) n (%)
Dehydration, treatment-related grade ≥3 AE: 0 (0) n (%)
Depression, all-grade AE of any cause: 1 (3) n (%)
Diarrhoea, all-grade AE of any cause: 20 (51) n (%)
Diarrhoea, grade ≥3 AE of any cause: 2 (5) n (%)
Diarrhoea, treatment-related AE: 17 (44) n (%)
Diarrhoea, treatment-related grade ≥3 AE: 2 (5) n (%)
Dizziness, all-grade AE of any cause: 9 (23) n (%)
Dry mouth, all-grade AE of any cause: 5 (13) n (%)
Dry mouth, treatment-related AE: 3 (8) n (%)
Dysgeusia, all-grade AE of any cause: 10 (26) n (%)
Dysgeusia, treatment-related AE: 10 (26) n (%)
Dyspepsia, treatment-related AE: 1 (3) n (%)
Dyspnoea, grade ≥3 AE of any cause: 2 (5) n (%)
Fatigue, all-grade AE of any cause: 25 (64) n (%)
Fatigue, grade ≥3 AE of any cause: 5 (13) n (%)
Fatigue, treatment-related AE: 22 (56) n (%)
Fatigue, treatment-related grade ≥3 AE: 4 (10) n (%)
Haematuria, grade ≥3 AE of any cause: 2 (5) n (%)
Headache, all-grade AE of any cause: 4 (10) n (%)
Headache, treatment-related AE: 0 (0) n (%)
Hypercholesterolemia, treatment-related AE: 0 (0) n (%)
Hyperglycaemia, all-grade AE of any cause: 18 (46) n (%)
Hyperglycaemia, grade ≥3 AE of any cause: 5 (13) n (%)
Hyperglycaemia, treatment-related AE: 17 (44) n (%)
Hyperglycaemia, treatment-related grade ≥3 AE: 5 (13) n (%)
Hyperkalaemia, grade ≥3 AE of any cause: 2 (5) n (%)
Hypertension, grade ≥3 AE of any cause: 1 (3) n (%)
Hypokalaemia, grade ≥3 AE of any cause: 1 (3) n (%)
Hyponatremia, grade ≥3 AE of any cause: 1 (3) n (%)
Hypophosphatemia, grade ≥3 AE of any cause: 4 (10) n (%)
Hypophosphatemia, treatment-related AE: 3 (8) n (%)
Hypophosphatemia, treatment-related grade ≥3 AE: 3 (8) n (%)
Lymphopenia, grade ≥3 AE of any cause: 1 (3) n (%)
Lymphopenia, treatment-related grade ≥3 AE: 0 (0) n (%)
Musculoskeletal chest pain, grade ≥3 AE of any cause: 1 (3) n (%)
Nausea, all-grade AE of any cause: 21 (54) n (%)
Nausea, grade ≥3 AE of any cause: 1 (3) n (%)
Nausea, treatment-related AE: 20 (51) n (%)
Nausea, treatment-related grade ≥3 AE: 1 (3) n (%)
Oedema peripheral, all-grade AE of any cause: 9 (23) n (%)
On-study deaths: 0 n (%)
Oropharyngeal pain, all-grade AE of any cause: 3 (8) n (%)
Pain in extremity, grade ≥3 AE of any cause: 0 (0) n (%)
Pneumonia, grade ≥3 AE of any cause: 2 (5) n (%)
Pruritus generalised, all-grade AE of any cause: 12 (31) n (%)
Pruritus generalised, treatment-related AE: 11 (28) n (%)
Pruritus generalised, treatment-related grade ≥3 AE: 1 (3) n (%)
Pruritus, all-grade AE of any cause: 10 (26) n (%)
Pruritus, treatment-related AE: 7 (18) n (%)
Pyrexia, all-grade AE of any cause: 8 (21) n (%)
Rash maculo-papular, all-grade AE of any cause: 17 (44) n (%)
Rash maculo-papular, grade ≥3 AE of any cause: 3 (8) n (%)
Rash maculo-papular, treatment-related AE: 14 (36) n (%)
Rash maculo-papular, treatment-related grade ≥3 AE: 3 (8) n (%)
Rash, treatment-related AE: 1 (3) n (%)
Rash, treatment-related grade ≥3 AE: 0 (0) n (%)
Sepsis, grade ≥3 AE of any cause: 1 (3) n (%)
Stomatitis (includes oropharyngeal pain and mucosal inflammation), treatment-related AE: 19 (49) n (%)
Stomatitis, all-grade AE of any cause: 19 (49) n (%)
Stomatitis, grade ≥3 AE of any cause: 3 (8) n (%)
Stomatitis, treatment-related grade ≥3 AE: 3 (8) n (%)
Thrombocytopenia, grade ≥3 AE of any cause: 2 (5) n (%)
Thrombocytopenia, treatment-related grade ≥3 AE: 2 (5) n (%)
Transitional cell carcinoma, grade ≥3 AE of any cause: 0 (0) n (%)
Urinary tract infection, all-grade AE of any cause: 6 (15) n (%)
Vomiting, all-grade AE of any cause: 13 (33) n (%)
Vomiting, grade ≥3 AE of any cause: 1 (3) n (%)
Vomiting, treatment-related AE: 12 (31) n (%)
Weight decreased, all-grade AE of any cause: 6 (15) n (%)
Weight decreased, treatment-related AE: 5 (13) n (%)
